Assay results published in the NIST ThermoML archive (doi:10.1021/je800100m).
Numbers after ± are expanded uncertainties.

How the values were obtained:
[1] = Liquid; for mass density: 101.33 kPa, Pycnometric method; for speed of sound: 101.3 kPa, Sing-around technique in a fixed-path interferometer
[2] = xn = mol fraction of the nth substance listed; conditions: 308.15 K, 101 kPa, Liquid, Sing-around technique in a fixed-path interferometer

`Cc1ccccc1N` [2-methylaniline] showed a mass density ([1]; 298.15 K) of 994.28 ± 7.2 kg/m3 and a speed of sound ([1]; 308.15 K) of 1603 ± 5 m/s.
With `Cc1ccccc1N` [2-methylaniline] + Cc1ccccc1 the speed of sound ([2]; x1 = 0.0457) was 1270 ± 5 m/s, the speed of sound ([2]; x1 = 0.0998) was 1283 ± 5 m/s and the speed of sound ([2]; x1 = 0.1516) was 1296 ± 5 m/s. The speed of sound ([2]; x1 = 0.2017) was 1308 ± 5 m/s, the speed of sound ([2]; x1 = 0.2773) was 1327 ± 5 m/s and the speed of sound ([2]; x1 = 0.3496) was 1346 ± 5 m/s. It also gave a speed of sound ([2]; x1 = 0.407) of 1359 ± 5 m/s, a speed of sound ([2]; x1 = 0.4797) of 1381 ± 5 m/s and a speed of sound ([2]; x1 = 0.5882) of 1414 ± 5 m/s. For the same compound, the speed of sound ([2]; x1 = 0.6667) was 1440 ± 5 m/s, the speed of sound ([2]; x1 = 0.7464) was 1470 ± 5 m/s and the speed of sound ([2]; x1 = 0.8033) was 1494 ± 5 m/s. The speed of sound ([2]; x1 = 0.8647) was 1523 ± 5 m/s and the speed of sound ([2]; x1 = 0.9223) was 1554 ± 5 m/s.
With `Cc1ccc(C)cc1` [1,4-dimethylbenzene] the speed of sound ([1]; 298.15 K) was 1310.1 ± 5.4 m/s and the mass density ([1]; 298.15 K) was 856.58 ± 5.3 kg/m3.
With `Cc1ccccc1` [toluene] the speed of sound ([1]; 298.15 K) was 1304.6 ± 5.4 m/s and the mass density ([1]; 298.15 K) was 862.21 ± 5.4 kg/m3.
With `Cc1ccccc1N` [2-methylaniline] + Cc1ccccc1C the speed of sound ([2]; x1 = 0.0799) was 1325 ± 5 m/s, the speed of sound ([2]; x1 = 0.1313) was 1328 ± 5 m/s and the speed of sound ([2]; x1 = 0.1977) was 1333 ± 5 m/s. For the same compound, the speed of sound ([2]; x1 = 0.2507) was 1338 ± 5 m/s, the speed of sound ([2]; x1 = 0.3003) was 1345 ± 5 m/s and the speed of sound ([2]; x1 = 0.3663) was 1355 ± 5 m/s. It also gave a speed of sound ([2]; x1 = 0.4456) of 1370 ± 5 m/s, a speed of sound ([2]; x1 = 0.508) of 1385 ± 5 m/s and a speed of sound ([2]; x1 = 0.5892) of 1408 ± 5 m/s. It also gave a speed of sound ([2]; x1 = 0.6666) of 1434 ± 5 m/s, a speed of sound ([2]; x1 = 0.7287) of 1459 ± 5 m/s and a speed of sound ([2]; x1 = 0.7884) of 1485 ± 5 m/s. The speed of sound ([2]; x1 = 0.8314) was 1505 ± 5 m/s and the speed of sound ([2]; x1 = 0.909) was 1547 ± 5 m/s.
`Cc1ccccc1C` [1,2-dimethylbenzene] gave a speed of sound ([1]; 298.15 K) of 1344 ± 5.4 m/s and a mass density ([1]; 298.15 K) of 875.99 ± 5.6 kg/m3.
With `Cc1ccccc1N` [2-methylaniline] + Cc1ccc(C)cc1 the speed of sound ([2]; x1 = 0.0534) was 1287 ± 5 m/s, the speed of sound ([2]; x1 = 0.1009) was 1295 ± 5 m/s and the speed of sound ([2]; x1 = 0.1707) was 1308 ± 5 m/s. The speed of sound ([2]; x1 = 0.2483) was 1325 ± 5 m/s, the speed of sound ([2]; x1 = 0.32) was 1342 ± 5 m/s and the speed of sound ([2]; x1 = 0.3949) was 1361 ± 5 m/s. The speed of sound ([2]; x1 = 0.4559) was 1378 ± 5 m/s, the speed of sound ([2]; x1 = 0.5332) was 1402 ± 5 m/s and the speed of sound ([2]; x1 = 0.6007) was 1423 ± 5 m/s. For the same compound, the speed of sound ([2]; x1 = 0.6897) was 1455 ± 5 m/s, the speed of sound ([2]; x1 = 0.7417) was 1475 ± 5 m/s and the speed of sound ([2]; x1 = 0.8009) was 1500 ± 5 m/s. For the same compound, the speed of sound ([2]; x1 = 0.8668) was 1530 ± 5 m/s and the speed of sound ([2]; x1 = 0.9374) was 1567 ± 5 m/s.
